# Source: paper PMC10209615, “Pharmacological inhibition of LSD1 suppresses growth of hepatocellular carcinoma by inducing GADD45B” (MedComm, 2023)
# Tests used:
# Experiment in all cases: Kinase activity detection (Eurofins)
# Type in all cases: biochemical
# EGFR (T790M, L858R) = target: T1, EGFR (T790M, L858R) (Homo sapiens, UniProt P00533, L858R/T790M); conditions: ZY0511 1 µM
# T1 construct: purchased Eurofins Pharma Discovery Services (KinaseProfiler)
# Procedure: (§1) The activity of ZY0511 against 104 cancer‐related kinases was carried out by Eurofins Pharma Discovery Services (Celle Lévescault, France).
# ZAP-70 = target: T2, ZAP-70 (Homo sapiens, UniProt P43403); conditions: ZY0511 1 µM, read-out: Activation rate
# T2 construct: purchased Eurofins Pharma Discovery Services (KinaseProfiler)
# Procedure: as §1
# DYRK2 = target: T3, DYRK2 (Homo sapiens, UniProt Q92630); conditions: ZY0511 1 µM, read-out: Inhibition rate
# T3 construct: purchased Eurofins Pharma Discovery Services (KinaseProfiler)
# Procedure: as §1
# PI3 Kinase (p110δ/p85α) = target: T4, PI3 Kinase (p110δ/p85α) (Homo sapiens, UniProt O00329); conditions: ZY0511 1 µM, read-out: Inhibition rate
# T4 construct: purchased Eurofins Pharma Discovery Services (KinaseProfiler)
# Procedure: as §1
# DCAMKL3 = target: T5, DCAMKL3 (Homo sapiens, UniProt Q9C098); conditions: ZY0511 1 µM, read-out: Inhibition rate
# T5 construct: purchased Eurofins Pharma Discovery Services
# Procedure: as §1
# Aurora-A = target: T6, Aurora-A (Homo sapiens, UniProt O14965); conditions: ZY0511 1 µM, read-out: Inhibition rate
# T6 construct: purchased Eurofins Pharma Discovery Services (KinaseProfiler)
# Procedure: as §1
# CK1γ1 = target: T7, CK1γ1 (Homo sapiens, UniProt Q9HCP0); conditions: ZY0511 1 µM, read-out: Inhibition rate
# T7 construct: purchased Eurofins Pharma Discovery Services
# Procedure: as §1
# PKCι = target: T8, PKCι (Homo sapiens, UniProt P41743); conditions: ZY0511 1 µM, read-out: Inhibition rate
# T8 construct: purchased Eurofins Pharma Discovery Services
# Procedure: as §1
# LKB1 = target: T9, LKB1 (Homo sapiens, UniProt Q15831); conditions: ZY0511 1 µM, read-out: Inhibition rate
# T9 construct: purchased Eurofins Pharma Discovery Services (KinaseProfiler)
# Procedure: as §1
# Flt1 = target: T10, Flt1 (Homo sapiens, UniProt P17948); conditions: ZY0511 1 µM, read-out: Inhibition rate
# T10 construct: purchased Eurofins Pharma Discovery Services (KinaseProfiler)
# Procedure: as §1
# B-Raf = target: T11, B-Raf (Homo sapiens, UniProt P15056); conditions: ZY0511 1 µM, read-out: Inhibition rate
# T11 construct: purchased Eurofins Pharma Discovery Services (KinaseProfiler)
# Procedure: as §1
# EGFR (L858R) = target: T12, EGFR (L858R) (Homo sapiens, UniProt P00533, L858R); conditions: ZY0511 1 µM, read-out: Inhibition rate
# T12 construct: purchased Eurofins Pharma Discovery Services (KinaseProfiler)
# Procedure: as §1
# MST3 = target: T13, MST3 (Homo sapiens, UniProt Q9Y6E0); conditions: ZY0511 1 µM, read-out: Inhibition rate
# T13 construct: purchased Eurofins Pharma Discovery Services (KinaseProfiler)
# Procedure: as §1
# EGFR (L861Q) = target: T14, EGFR (L861Q) (Homo sapiens, UniProt P00533, L861Q); conditions: ZY0511 1 µM, read-out: Inhibition rate
# T14 construct: purchased Eurofins Pharma Discovery Services (KinaseProfiler)
# Procedure: as §1
# PKCα = target: T15, PKCα (Homo sapiens, UniProt P17252); conditions: ZY0511 1 µM, read-out: Activation rate
# T15 construct: purchased Eurofins Pharma Discovery Services (KinaseProfiler)
# Procedure: as §1
# PKCη = target: T16, PKCη (Homo sapiens, UniProt P24723); conditions: ZY0511 1 µM, read-out: Activation rate
# T16 construct: purchased Eurofins Pharma Discovery Services (KinaseProfiler)
# Procedure: as §1
# EphB4 = target: T17, EphB4 (Homo sapiens, UniProt P54760); conditions: ZY0511 1 µM, read-out: Activation rate
# T17 construct: purchased Eurofins Pharma Discovery Services (KinaseProfiler)
# Procedure: as §1
# Axl = target: T18, Axl (Homo sapiens, UniProt P30530); conditions: ZY0511 1 µM, read-out: Activation rate
# T18 construct: purchased Eurofins Pharma Discovery Services (KinaseProfiler)
# Procedure: as §1
# Abl (T315I) = target: T19, Abl (T315I) (Homo sapiens, UniProt P00519, T315I); conditions: ZY0511 1 µM, read-out: Inhibition rate
# T19 construct: purchased Eurofins Pharma Discovery Services
# Procedure: as §1
# HIPK2 = target: T20, HIPK2 (Homo sapiens, UniProt Q9H2X6); conditions: ZY0511 1 µM, read-out: Inhibition rate
# T20 construct: purchased Eurofins Pharma Discovery Services
# Procedure: as §1
# Bmx = target: T21, Bmx (Homo sapiens, UniProt P51813); conditions: ZY0511 1 µM, read-out: Inhibition rate
# T21 construct: purchased Eurofins Pharma Discovery Services (KinaseProfiler)
# Procedure: as §1
# PDGFRα = target: T22, PDGFRα (Homo sapiens, UniProt P16234); conditions: ZY0511 1 µM, read-out: Activation rate
# T22 construct: purchased Eurofins Pharma Discovery Services (KinaseProfiler)
# Procedure: as §1
# Fms = target: T23, Fms (Homo sapiens, UniProt P07333); conditions: ZY0511 1 µM, read-out: Inhibition rate
# T23 construct: purchased Eurofins Pharma Discovery Services (KinaseProfiler)
# Procedure: as §1
# Ron = target: T24, Ron (Homo sapiens, UniProt Q04912); conditions: ZY0511 1 µM, read-out: Activation rate
# T24 construct: purchased Eurofins Pharma Discovery Services (KinaseProfiler)
# Procedure: as §1
# PI3 Kinase (p110βγ/p85α) = target: T25, PI3 Kinase (p110βγ/p85α) (Homo sapiens, UniProt P42338); conditions: ZY0511 1 µM, read-out: Inhibition rate
# T25 construct: purchased Eurofins Pharma Discovery Services (KinaseProfiler)
# Procedure: as §1
# [1] = target: T26, PI3 Kinase (p110α (E542K)/p85α) (Homo sapiens, UniProt P42336, E542K); conditions: ZY0511 1 µM, read-out: Inhibition rate
# T26 construct: purchased Eurofins Pharma Discovery Services
# Procedure: as §1
# Blk = target: T27, Blk (Homo sapiens, UniProt P51451); conditions: ZY0511 1 µM, read-out: Inhibition rate
# T27 construct: purchased Eurofins Pharma Discovery Services (KinaseProfiler)
# Procedure: as §1
# Flt3 = target: T28, Flt3 (Homo sapiens, UniProt P36888); conditions: ZY0511 1 µM, read-out: Inhibition rate
# T28 construct: purchased Eurofins Pharma Discovery Services (KinaseProfiler)
# Procedure: as §1
# TrkA = target: T29, TrkA (Homo sapiens, UniProt P04629); conditions: ZY0511 1 µM, read-out: Activation rate
# T29 construct: purchased Eurofins Pharma Discovery Services (KinaseProfiler)
# Procedure: as §1
# Tie2 = target: T30, Tie2 (Homo sapiens, UniProt Q02763); conditions: ZY0511 1 µM, read-out: Inhibition rate
# T30 construct: purchased Eurofins Pharma Discovery Services (KinaseProfiler)
# Procedure: as §1
# FGFR4 = target: T31, FGFR4 (Homo sapiens, UniProt P22455); conditions: ZY0511 1 µM, read-out: Inhibition rate
# T31 construct: purchased Eurofins Pharma Discovery Services
# Procedure: as §1
# FAK = target: T32, FAK (Homo sapiens, UniProt Q05397); conditions: ZY0511 1 µM, read-out: Inhibition rate
# T32 construct: purchased Eurofins Pharma Discovery Services
# Procedure: as §1
# PDGFRα (D842V) = target: T33, PDGFRα (D842V) (Homo sapiens, UniProt P16234, D842V); conditions: ZY0511 1 µM, read-out: Activation rate
# T33 construct: purchased Eurofins Pharma Discovery Services (KinaseProfiler)
# Procedure: as §1
# FGFR2 = target: T34, FGFR2 (Homo sapiens, UniProt P21802); conditions: ZY0511 1 µM, read-out: Inhibition rate
# T34 construct: purchased Eurofins Pharma Discovery Services
# Procedure: as §1
# HIPK3 = target: T35, HIPK3 (Homo sapiens, UniProt Q9H422); conditions: ZY0511 1 µM, read-out: Inhibition rate
# T35 construct: purchased Eurofins Pharma Discovery Services (KinaseProfiler)
# Procedure: as §1
# Fer = target: T36, Fer (Homo sapiens, UniProt P16591); conditions: ZY0511 1 µM, read-out: Inhibition rate
# T36 construct: purchased Eurofins Pharma Discovery Services (KinaseProfiler)
# Procedure: as §1
# EphA2 = target: T37, EphA2 (Homo sapiens, UniProt P29317); conditions: ZY0511 1 µM, read-out: Activation rate
# T37 construct: purchased Eurofins Pharma Discovery Services (KinaseProfiler)
# Procedure: as §1
# ATM = target: T38, ATM (Homo sapiens, UniProt Q13315)
# T38 construct: purchased Eurofins Pharma Discovery Services
# Procedure: as §1
# Fes = target: T39, Fes (Homo sapiens, UniProt P07332); conditions: ZY0511 1 µM, read-out: Inhibition rate
# T39 construct: purchased Eurofins Pharma Discovery Services (KinaseProfiler)
# Procedure: as §1
# Pim-1 = target: T40, Pim-1 (Homo sapiens, UniProt P11309); conditions: ZY0511 1 µM, read-out: Inhibition rate
# T40 construct: purchased Eurofins Pharma Discovery Services (KinaseProfiler)
# Procedure: as §1
# NIM1 = target: T41, NIM1 (Homo sapiens, UniProt Q8IY84); conditions: ZY0511 1 µM, read-out: Inhibition rate
# T41 construct: purchased Eurofins Pharma Discovery Services
# Procedure: as §1
# T41 sequence (Q8IY84 whole entry, species assumed): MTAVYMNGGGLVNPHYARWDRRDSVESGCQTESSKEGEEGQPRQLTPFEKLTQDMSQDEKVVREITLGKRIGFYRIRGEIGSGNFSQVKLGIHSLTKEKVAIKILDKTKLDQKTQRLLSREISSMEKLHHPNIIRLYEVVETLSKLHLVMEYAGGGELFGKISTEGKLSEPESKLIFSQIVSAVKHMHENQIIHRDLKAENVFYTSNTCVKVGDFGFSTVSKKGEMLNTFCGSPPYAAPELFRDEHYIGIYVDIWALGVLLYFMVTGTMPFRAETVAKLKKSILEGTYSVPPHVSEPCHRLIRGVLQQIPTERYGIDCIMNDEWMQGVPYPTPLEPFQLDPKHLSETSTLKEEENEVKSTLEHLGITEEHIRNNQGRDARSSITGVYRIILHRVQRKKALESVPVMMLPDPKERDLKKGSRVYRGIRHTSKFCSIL
# T2 sequence (P43403 whole entry): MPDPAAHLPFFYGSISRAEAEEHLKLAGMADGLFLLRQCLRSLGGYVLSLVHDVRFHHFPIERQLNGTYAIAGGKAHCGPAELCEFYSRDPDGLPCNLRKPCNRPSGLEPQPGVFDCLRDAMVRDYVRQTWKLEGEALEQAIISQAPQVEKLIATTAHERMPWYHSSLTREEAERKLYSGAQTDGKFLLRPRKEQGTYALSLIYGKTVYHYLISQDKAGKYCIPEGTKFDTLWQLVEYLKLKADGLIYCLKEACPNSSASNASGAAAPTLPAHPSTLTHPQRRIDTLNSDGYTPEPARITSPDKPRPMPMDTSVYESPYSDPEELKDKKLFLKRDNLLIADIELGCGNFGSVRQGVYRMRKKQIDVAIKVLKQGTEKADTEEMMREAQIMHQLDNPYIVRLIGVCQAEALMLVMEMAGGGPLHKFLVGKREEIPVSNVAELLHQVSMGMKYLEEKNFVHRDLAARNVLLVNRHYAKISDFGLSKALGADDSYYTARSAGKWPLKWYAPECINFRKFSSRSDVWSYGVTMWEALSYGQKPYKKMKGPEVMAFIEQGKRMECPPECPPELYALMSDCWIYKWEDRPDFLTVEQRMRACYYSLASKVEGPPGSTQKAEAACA
# T20 sequence (Q9H2X6 whole entry, species assumed): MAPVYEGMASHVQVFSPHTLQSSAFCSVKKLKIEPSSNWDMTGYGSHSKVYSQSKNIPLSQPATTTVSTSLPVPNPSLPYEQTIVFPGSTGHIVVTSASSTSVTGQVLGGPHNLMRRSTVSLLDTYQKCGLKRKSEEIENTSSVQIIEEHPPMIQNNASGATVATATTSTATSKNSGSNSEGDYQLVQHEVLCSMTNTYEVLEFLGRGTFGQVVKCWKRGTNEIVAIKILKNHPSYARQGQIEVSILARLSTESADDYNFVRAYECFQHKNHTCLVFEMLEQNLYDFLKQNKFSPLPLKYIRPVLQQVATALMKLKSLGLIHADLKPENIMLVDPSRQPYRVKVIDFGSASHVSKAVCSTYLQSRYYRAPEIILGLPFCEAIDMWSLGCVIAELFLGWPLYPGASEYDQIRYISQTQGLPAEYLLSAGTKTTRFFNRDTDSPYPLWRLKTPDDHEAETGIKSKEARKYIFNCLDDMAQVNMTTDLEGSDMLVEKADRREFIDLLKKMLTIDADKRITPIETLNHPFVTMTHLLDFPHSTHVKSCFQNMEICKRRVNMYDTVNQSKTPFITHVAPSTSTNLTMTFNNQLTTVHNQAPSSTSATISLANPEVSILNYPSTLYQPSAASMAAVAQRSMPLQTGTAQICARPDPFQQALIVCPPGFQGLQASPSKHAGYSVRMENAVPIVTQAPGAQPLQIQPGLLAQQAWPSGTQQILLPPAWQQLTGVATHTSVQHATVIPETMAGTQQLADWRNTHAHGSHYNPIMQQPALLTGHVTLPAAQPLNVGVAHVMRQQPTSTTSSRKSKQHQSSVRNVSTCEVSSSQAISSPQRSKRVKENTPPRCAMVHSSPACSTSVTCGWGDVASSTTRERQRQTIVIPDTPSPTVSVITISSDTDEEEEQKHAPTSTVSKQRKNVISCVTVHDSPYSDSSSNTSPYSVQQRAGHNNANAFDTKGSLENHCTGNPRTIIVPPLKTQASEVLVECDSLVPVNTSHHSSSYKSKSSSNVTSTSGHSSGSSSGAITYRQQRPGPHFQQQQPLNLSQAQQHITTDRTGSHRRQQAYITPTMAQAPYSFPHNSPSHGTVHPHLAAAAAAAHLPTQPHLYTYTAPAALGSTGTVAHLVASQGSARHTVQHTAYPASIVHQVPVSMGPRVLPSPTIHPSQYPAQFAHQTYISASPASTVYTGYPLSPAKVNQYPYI
# T7 sequence (Q9HCP0 whole entry): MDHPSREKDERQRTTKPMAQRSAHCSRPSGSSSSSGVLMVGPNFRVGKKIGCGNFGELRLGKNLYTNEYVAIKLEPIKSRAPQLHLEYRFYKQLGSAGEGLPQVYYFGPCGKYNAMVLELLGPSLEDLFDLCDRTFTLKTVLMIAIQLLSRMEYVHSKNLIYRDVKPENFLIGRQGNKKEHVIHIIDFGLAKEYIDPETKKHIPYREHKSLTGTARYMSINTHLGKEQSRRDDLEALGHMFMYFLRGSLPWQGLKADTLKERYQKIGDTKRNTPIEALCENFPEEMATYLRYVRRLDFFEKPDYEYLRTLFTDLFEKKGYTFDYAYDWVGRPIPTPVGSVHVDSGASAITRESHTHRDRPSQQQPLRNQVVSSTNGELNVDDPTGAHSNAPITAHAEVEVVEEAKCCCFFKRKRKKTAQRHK
# T30 sequence (Q02763 23-1124): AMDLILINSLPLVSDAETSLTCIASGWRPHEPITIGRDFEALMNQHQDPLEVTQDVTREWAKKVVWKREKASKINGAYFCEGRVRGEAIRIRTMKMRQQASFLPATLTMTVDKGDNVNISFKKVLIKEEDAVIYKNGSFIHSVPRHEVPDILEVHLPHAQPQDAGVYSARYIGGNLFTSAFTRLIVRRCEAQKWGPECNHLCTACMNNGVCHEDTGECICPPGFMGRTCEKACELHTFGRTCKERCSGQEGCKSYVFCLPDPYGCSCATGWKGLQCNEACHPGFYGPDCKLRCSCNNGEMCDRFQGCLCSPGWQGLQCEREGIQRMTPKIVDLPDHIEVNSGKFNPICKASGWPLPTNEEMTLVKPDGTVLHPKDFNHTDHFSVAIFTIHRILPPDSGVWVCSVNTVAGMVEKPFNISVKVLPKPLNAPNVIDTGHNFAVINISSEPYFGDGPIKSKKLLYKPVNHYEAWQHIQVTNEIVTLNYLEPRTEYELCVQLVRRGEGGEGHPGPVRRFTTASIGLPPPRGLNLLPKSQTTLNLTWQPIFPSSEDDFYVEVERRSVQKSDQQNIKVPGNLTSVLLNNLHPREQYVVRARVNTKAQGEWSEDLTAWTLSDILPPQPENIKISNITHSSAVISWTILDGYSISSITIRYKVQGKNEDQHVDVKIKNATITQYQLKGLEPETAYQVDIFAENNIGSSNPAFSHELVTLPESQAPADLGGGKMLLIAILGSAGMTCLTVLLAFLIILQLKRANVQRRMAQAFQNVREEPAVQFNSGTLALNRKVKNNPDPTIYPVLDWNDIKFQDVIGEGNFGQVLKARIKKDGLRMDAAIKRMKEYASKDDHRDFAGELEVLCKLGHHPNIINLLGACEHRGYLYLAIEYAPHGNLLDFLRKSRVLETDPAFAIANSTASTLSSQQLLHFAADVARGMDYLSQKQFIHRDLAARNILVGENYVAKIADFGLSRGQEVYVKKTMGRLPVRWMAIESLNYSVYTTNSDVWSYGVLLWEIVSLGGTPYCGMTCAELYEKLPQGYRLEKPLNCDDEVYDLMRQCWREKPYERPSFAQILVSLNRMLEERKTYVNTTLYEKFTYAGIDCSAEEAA
# T32 sequence (Q05397 whole entry, species assumed): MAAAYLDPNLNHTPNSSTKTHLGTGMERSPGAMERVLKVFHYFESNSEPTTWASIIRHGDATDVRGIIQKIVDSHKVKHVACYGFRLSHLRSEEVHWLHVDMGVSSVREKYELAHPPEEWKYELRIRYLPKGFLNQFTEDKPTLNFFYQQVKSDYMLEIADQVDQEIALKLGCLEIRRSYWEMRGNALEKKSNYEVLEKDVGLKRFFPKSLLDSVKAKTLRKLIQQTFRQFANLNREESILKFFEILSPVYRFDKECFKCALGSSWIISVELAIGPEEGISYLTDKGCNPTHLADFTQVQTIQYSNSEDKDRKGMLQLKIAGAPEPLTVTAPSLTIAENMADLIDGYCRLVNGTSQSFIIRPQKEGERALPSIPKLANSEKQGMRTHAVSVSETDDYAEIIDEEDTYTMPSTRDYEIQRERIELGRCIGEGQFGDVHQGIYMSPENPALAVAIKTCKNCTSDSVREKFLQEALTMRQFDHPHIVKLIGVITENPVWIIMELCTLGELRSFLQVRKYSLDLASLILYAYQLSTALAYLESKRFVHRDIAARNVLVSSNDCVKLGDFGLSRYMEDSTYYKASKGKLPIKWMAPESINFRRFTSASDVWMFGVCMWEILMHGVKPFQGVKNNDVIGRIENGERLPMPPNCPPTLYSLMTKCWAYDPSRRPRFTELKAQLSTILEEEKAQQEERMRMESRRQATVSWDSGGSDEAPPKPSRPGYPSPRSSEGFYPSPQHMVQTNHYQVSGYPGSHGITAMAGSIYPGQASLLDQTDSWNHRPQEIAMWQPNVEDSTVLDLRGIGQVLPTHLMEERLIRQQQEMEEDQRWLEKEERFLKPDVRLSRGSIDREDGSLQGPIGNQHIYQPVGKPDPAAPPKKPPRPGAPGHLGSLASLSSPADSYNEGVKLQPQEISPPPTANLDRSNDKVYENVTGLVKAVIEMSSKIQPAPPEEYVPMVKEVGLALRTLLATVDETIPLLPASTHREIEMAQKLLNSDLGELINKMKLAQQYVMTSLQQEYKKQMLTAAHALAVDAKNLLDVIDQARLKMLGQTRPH
structure (smiles),measurement,setting,value
"O=C(N/N=C1\CCc2c(Cl)ccc(O)c21)c1cccc(S(=O)(=O)N2CCOCC2)c1 [ZY0511, (E)‐N'‐(2, 3‐dihydro‐1H‐inden‐1‐ylidene) benzohydrazides]",Activation rate,"EGFR (T790M, L858R)",2%
same,activation at 1 µM,ZAP-70,4%
same,inhibition at 1 µM,DYRK2,5%
same,inhibition at 1 µM,PI3 Kinase (p110δ/p85α),6%
same,inhibition at 1 µM,DCAMKL3,3%
same,inhibition at 1 µM,Aurora-A,17%
same,inhibition at 1 µM,CK1γ1,12%
same,inhibition at 1 µM,PKCι,2%
same,inhibition at 1 µM,LKB1,15%
same,inhibition at 1 µM,Flt1,20%
same,inhibition at 1 µM,B-Raf,29%
same,inhibition at 1 µM,EGFR (L858R),8%
same,inhibition at 1 µM,MST3,35%
same,inhibition at 1 µM,EGFR (L861Q),6%
same,activation at 1 µM,PKCα,4%
same,activation at 1 µM,PKCη,2%
same,activation at 1 µM,EphB4,5%
same,activation at 1 µM,Axl,3%
same,inhibition at 1 µM,Abl (T315I),1%
same,inhibition at 1 µM,HIPK2,13%
same,inhibition at 1 µM,Bmx,17%
same,activation at 1 µM,PDGFRα,33%
same,inhibition at 1 µM,Fms,7%
same,activation at 1 µM,Ron,7%
same,inhibition at 1 µM,PI3 Kinase (p110βγ/p85α),8%
same,inhibition at 1 µM,[1],2%
same,inhibition at 1 µM,Blk,29%
same,inhibition at 1 µM,Flt3,8%
same,activation at 1 µM,TrkA,3%
same,inhibition at 1 µM,Tie2,50%
same,inhibition at 1 µM,FGFR4,14%
same,inhibition at 1 µM,FAK,3%
same,activation at 1 µM,PDGFRα (D842V),2%
same,inhibition at 1 µM,FGFR2,11%
same,inhibition at 1 µM,HIPK3,6%
same,inhibition at 1 µM,Fer,47%
same,activation at 1 µM,EphA2,5%
same,IC50,ATM,9.8 µM
same,inhibition at 1 µM,Fes,24%
same,inhibition at 1 µM,Pim-1,15%
same,inhibition at 1 µM,NIM1,2%
